Results reported in patent US9670227B2, “Thienopyrimidine derivatives, a process for their preparation and pharmaceutical compositions containing them” (LES LABORATOIRES SERVIER, priority 2013, dated 2017).
Where two headings read alike, the source gives them in different places.

How the values were obtained:
[1] = system: H929 multiple myeloma tumour line; test: In vitro cytotoxicity, Microculture Tetrazolium Assay; type: cell-based; details: H929 cells, 48 hours exposure, MTT, read-out: IC50 (μM) MTT H929
Protocol: The cytotoxicity studies were carried out on the H929 multiple myeloma tumour line.
The cells are distributed onto microplates and exposed to the test compounds for 48 hours.

Mcl-1 protein = Mcl-1 protein (UniProtKB primary accession number: Q07820) (Homo sapiens, UniProt Q07820); test: Inhibition of Mcl-1 by fluorescence polarisation, Method 1; type: binding; details: fluorescence polarisation; Method 1, or Method 2; read-out: IC50 (M) Mcl-1 FP
Outline: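 FP readout of relative binding potency. Mcl-1 5 nM final, fluorescein-labelled ligand 1 nM final; buffer 10 mM HEPES, 150 mM NaCl, 0.05% Tween 20, pH 7.4; 11-pt dilution series, 5% DMSO final.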

[2] = system: AMO-1 multiple myeloma cells; test: Quantification of the cleaved form of PARP in vivo (MSD ELISA, tumour lysates); parameters: species or system mice (SCID strain); details: activation factor: cleaved PARP in treated mice / control mice, AMO-1 xenograft in SCID mice, intraveinous or oral routes
Outline: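 SCID mice bearing subcutaneous AMO-1 xenografts (1.10^7 cells) dosed intravenously or orally 12 to 14 days after grafting. Cleaved PARP in tumour lysates measured by MSD ELISA. Reported as activation factor, the ratio of treated to control cleaved PARP.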

Sequence of Mcl-1 protein (Q07820 whole entry): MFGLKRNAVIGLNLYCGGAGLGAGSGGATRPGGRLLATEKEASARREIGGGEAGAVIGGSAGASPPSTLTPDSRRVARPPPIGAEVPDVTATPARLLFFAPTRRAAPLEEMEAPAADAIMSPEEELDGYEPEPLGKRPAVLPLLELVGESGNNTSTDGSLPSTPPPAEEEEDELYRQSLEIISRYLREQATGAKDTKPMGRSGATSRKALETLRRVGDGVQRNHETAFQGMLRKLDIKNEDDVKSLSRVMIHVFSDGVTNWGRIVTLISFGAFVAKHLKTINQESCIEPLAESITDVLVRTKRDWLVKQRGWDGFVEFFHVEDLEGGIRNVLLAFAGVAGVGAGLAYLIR

| Structure (SMILES) | IC50 [1] [µM] | IC50 (Mcl-1 protein) [M] | PARP fold [2] [fold] | IC50 ([1]; Homo sapiens, NCI-H929, 48 h) [µM] |
| --- | --- | --- | --- | --- |
| CCc1ccccc1-c1nccc(COc2ccccc2C[C@@H](Oc2ncnc3sc(-c4ccc(F)cc4)c(-c4ccc(OCCN5CCN(C)CC5)c(Cl)c4C)c23)C(=O)O)n1 [Example 726, (2R)-2-{[(5Sa)-5-{3-chloro-2-methyl-4-[2-(4-methylpiperazin-1-yl)ethoxy]phenyl}-6-(4-fluorophenyl)thieno[2,3-d]pyrimidin-4-yl]oxy}-3-(2-{[2-(2-ethylphenyl)pyrimidin-4-yl]methoxy}phenyl)propanoic acid] | 0.011 | 1.18e-09 | 112.5 | – |
| COc1ccc(-c2nccc(COc3ccccc3CC(Oc3ncnc4sc(-c5ccc(F)cc5)c(-c5ccc(OCCN6CCN(C)CC6)c(Cl)c5C)c34)C(=O)O)n2)c(C(F)(F)F)c1 [Example 729, (2R)-2-{[(5Sa)-5-{3-chloro-2-methyl-4-[2-(4-methylpiperazin-1-yl)ethoxy]phenyl}-6-(4-fluorophenyl)thieno[2,3-d]pyrimidin-4-yl]oxy}-3-[2-({2-[4-methoxy-2-(trifluoromethyl)phenyl]pyrimidin-4-yl}methoxy)phenyl]propanoic acid] | – | 1.24e-09 | 221 | 0.009 |
| Cc1cc(-c2nccc(COc3ccccc3CC(Oc3ncnc4sc(-c5ccc(F)cc5)c(-c5ccc(OCCN6CCN(C)CC6)c(Cl)c5C)c34)C(=O)O)n2)c(C)cn1 [Example 731, (2R)-2-{[(5Sa)-5-{3-chloro-2-methyl-4-[2-(4-methylpiperazin-1-yl)ethoxy]phenyl}-6-(4-fluorophenyl)thieno[2,3-d]pyrimidin-4-yl]oxy}-3-(2-{[2-(2,5-dimethylpyridin-4-yl)pyrimidin-4-yl]methoxy}phenyl)propanoic acid] | – | 9.48e-10 | 175.5 | 0.005 |
| CCc1c(-c2c(-c3ccc(F)cc3)sc3ncnc(O[C@H](Cc4ccccc4OCc4ccnc(-c5ccccc5OC)n4)C(=O)O)c23)ccc(OCCN2CCN(C)CC2)c1Cl [Example 741, (2R)-2-{[(5Sa)-5-{3-chloro-2-ethyl-4-[2-(4-methylpiperazin-1-yl)ethoxy]phenyl}-6-(4-fluorophenyl)thieno[2,3-d]pyrimidin-4-yl]oxy}-3-(2-{[2-(2-methoxyphenyl)pyrimidin-4-yl]methoxy}phenyl)propanoic acid] | 0.002 | 9.48e-10 | 244 | – |
| COc1ccccc1-c1nccc(COc2ccccc2CC(Oc2ncnc3sc(-c4ccc(F)cc4)c(-c4ccc(OCCN5CCN(C)CC5)c(Cl)c4Br)c23)C(=O)O)n1 [Example 742, (2R)-2-{[(5Sa)-5-{2-bromo-3-chloro-4-[2-(4-methylpiperazin-1-yl)ethoxy]phenyl}-6-(4-fluorophenyl)thieno[2,3-d]pyrimidin-4-yl]oxy}-3-(2-{[2-(2-methoxyphenyl)pyrimidin-4-yl]methoxy}phenyl)propanoic acid] | – | 9.48e-10 | 267.2 | 0.002 |
| COc1ccccc1-c1nccc(COc2ccccc2CC(Oc2ncnc3sc(-c4ccc(F)cc4)c(-c4ccc(OCCN5CCN(C)CC5)c(Cl)c4Cl)c23)C(=O)O)n1 [Example 743, (2R)-2-{[(5Sa)-5-{2,3-dichloro-4-[2-(4-methylpiperazin-1-yl)ethoxy]phenyl}-6-(4-fluorophenyl)thieno[2,3-d]pyrimidin-4-yl]oxy}-3-(2-{[2-(2-methoxyphenyl)pyrimidin-4-yl]methoxy}phenyl)propanoic acid] | – | 9.48e-10 | 147.3 | 0.005 |
| Cc1c(-c2c(-c3ccc(F)cc3)sc3ncnc(OC(Cc4ccccc4OCc4ccnn4C(C)(C)C)C(=O)O)c23)ccc(OCCN(C)C)c1Cl [Example 750, (2R)-3-{2-[(1-tert-butyl-1H-pyrazol-5-yl)methoxy]phenyl}-2-{[(5Sa)-5-{3-chloro-4-[2-(dimethylamino)ethoxy]-2-methylphenyl}-6-(4-fluorophenyl)thieno[2,3-d]pyrimidin-4-yl]oxy}propanoic acid] | – | 1.33e-09 | 181.6 | 0.035 |
| Cc1c(-c2c(-c3ccc(F)cc3)sc3ncnc(OC(Cc4ccccc4OCc4ccnc(-c5ccccc5F)n4)C(=O)O)c23)ccc(OCCN(C)C)c1Cl [Example 757, (2R)-2-{[(5Sa)-5-{3-chloro-4-[2-(dimethylamino)ethoxy]-2-methylphenyl}-6-(4-fluorophenyl)thieno[2,3-d]pyrimidin-4-yl]oxy}-3-(2-{[2-(2-fluorophenyl)pyrimidin-4-yl]methoxy}phenyl)propanoic acid] | – | 3.95e-09 | 135.6 | 0.013 |
| COc1ccccc1-c1nccc(COc2ccccc2CC(Oc2ncnc3sc(-c4ccc(OCc5ccccc5)cc4)c(-c4ccc(OCCN5CCN(C)CC5)c(Cl)c4C)c23)C(=O)O)n1 [Example 762, (2R)-2-[(6-[4-(benzyloxy)phenyl]-(5Sa)-5-{3-chloro-2-methyl-4-[2-(4-methylpiperazin-1-yl)ethoxy]phenyl}thieno[2,3-d]pyrimidin-4-yl)oxy]-3-(2-{[2-(2-methoxyphenyl)pyrimidin-4-yl]methoxy}phenyl)propanoic acid] | – | 1.88e-09 | 136.9 | 0.014 |
| COc1ccccc1-c1nccc(COc2ccccc2CC(Oc2ncnc3sc(-c4ccc(OCc5ccncc5)cc4)c(-c4ccc(OCCN5CCN(C)CC5)c(Cl)c4C)c23)C(=O)O)n1 [Example 774, (2R)-2-[((5Sa)-5-{3-chloro-2-methyl-4-[2-(4-methylpiperazin-1-yl)ethoxy]phenyl}-6-[4-(pyridin-4-ylmethoxy)phenyl]thieno[2,3-d]pyrimidin-4-yl)oxy]-3-(2-{[2-(2-methoxyphenyl)pyrimidin-4-yl]methoxy}phenyl)propanoic acid] | – | 9.48e-10 | 104.8 | 0.009 |
| COc1ccccc1-c1nccc(COc2ccccc2CC(Oc2ncnc3sc(C#CCCc4ccccc4)c(-c4ccc(OCCN5CCN(C)CC5)c(Cl)c4C)c23)C(=O)O)n1 [Example 781, (2R)-2-{[(5Sa)-5-{3-chloro-2-methyl-4-[2-(4-methylpiperazin-1-yl)ethoxy]phenyl}-6-(4-phenylbut-1-yn-1-yl)thieno[2,3-d]pyrimidin-4-yl]oxy}-3-(2-{[2-(2-methoxyphenyl)pyrimidin-4-yl]methoxy}phenyl)propanoic acid] | – | 9.48e-10 | 113.3 | 0.033 |
| COC(=O)C(Cc1ccccc1OCc1ccnc(-c2ccccc2OC)n1)Oc1ncnc2sc(-c3ccc(F)cc3)c(-c3ccc(OCCN4CCN(C)CC4)c(Cl)c3C)c12 [Example 787, methyl (2R)-2-{[(5Sa)-5-{3-chloro-2-methyl-4-[2-(4-methylpiperazin-1-yl)ethoxy]phenyl}-6-(4-fluorophenyl)thieno[2,3-d]pyrimidin-4-yl]oxy}-3-(2-{[2-(2-methoxyphenyl)pyrimidin-4-yl]methoxy}phenyl)propanoate] | – | 4.71e-07 | 131.5 | 0.245 |
| COc1ccccc1-c1nccc(COc2ccccc2CC(Oc2ncnc3sc(-c4ccc(F)cc4)c(-c4ccc(OCCN5CCN(C)CC5)c(Cl)c4C)c23)C(=O)OC(C)C)n1 [Example 788, propan-2-yl (2R)-2-{[(5Sa)-5-{3-chloro-2-methyl-4-[2-(4-methylpiperazin-1-yl)ethoxy]phenyl}-6-(4-fluorophenyl)thieno[2,3-d]pyrimidin-4-yl]oxy}-3-(2-{[2-(2-methoxyphenyl)pyrimidin-4-yl]methoxy}phenyl)propanoate] | – | 6.74e-07 | 144.8 | 0.494 |
